According to paper PMC8552062, “Contributions of UDP-Glucuronosyltransferases to Human Hepatic and Intestinal Metabolism of Ticagrelor and Inhibition of UGTs and Cytochrome P450 Enzymes by Ticagrelor and its Glucuronidated Metabolite” (Frontiers in Pharmacology, 2021):
Values joined by “and” are separate entries in the source; they are usually repeats but may differ in a detail not shown here. Equal values may be shown once.

Assays:
Assay type in all cases: in vitro ADME
UGT1A7 = target: T1, UGT1A7 (Homo sapiens, UniProt Q9HAW7); assay: Ticagrelor glucuronidation by recombinant human UGT1A7; conditions: recombinant human UGT1A7, pH 7.4
T1 construct: purchased BD Gentest; host or cells: baculovirus-infected insect cells
T1 sequence (Q9HAW7 26-530): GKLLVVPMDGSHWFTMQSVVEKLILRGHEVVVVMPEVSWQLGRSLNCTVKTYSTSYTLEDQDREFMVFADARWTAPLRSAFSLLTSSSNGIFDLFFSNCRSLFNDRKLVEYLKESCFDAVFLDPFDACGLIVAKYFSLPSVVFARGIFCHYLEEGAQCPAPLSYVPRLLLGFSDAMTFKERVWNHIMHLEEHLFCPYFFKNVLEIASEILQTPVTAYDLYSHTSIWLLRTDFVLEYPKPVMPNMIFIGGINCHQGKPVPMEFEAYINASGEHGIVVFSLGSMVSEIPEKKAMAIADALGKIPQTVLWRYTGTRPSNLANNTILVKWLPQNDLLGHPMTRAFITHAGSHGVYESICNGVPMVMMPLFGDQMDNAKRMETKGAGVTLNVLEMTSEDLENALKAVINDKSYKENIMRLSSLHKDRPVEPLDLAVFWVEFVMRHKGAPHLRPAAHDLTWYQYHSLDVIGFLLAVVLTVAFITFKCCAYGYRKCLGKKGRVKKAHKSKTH
Protocol: (§1) Ticagrelor glucuronidation was investigated in an in vitro incubation system by using HLM, HIM, and recombinant human UGTs. The incubation system consisted of enzyme sources (HLM, HIM, or human recombinant UGTs), various concentrations of ticagrelor (dissolved in 50% methanol, 1% v/v, 1, 2, 5, 10, 20, 50, 100, 200, 500 μM of final concentration), alamethicin (50 μg/mg protein), 5 mM MgCl2, 100 mM tris-HCL buffer (pH 7.4), and 5 mM UDPGA in a total volume of 100 μl. Alamethicin is a pore-forming polypeptide used to activate UGTs in HLM and HIM ([Fisher et al., 2000]). Preliminary studies were conducted to determine the optimal protein concentrations and incubation times. Linear conditions of ticagrelor-O-Glu formation from ticagrelor, i.e., HLM, 0.2 mg of protein/ml and 60 min, HIM, 0.2 mg of protein/ml and 60 min, and recombinant human UGTs, 0.2 mg of protein/ml and 60 min were selected. The incubation mixture without UDPGA was placed on ice for 15 min to activate UGT by alamethicin. […]
(§2) Kinetic analyses were performed using the mean values of triplicate determinations with either pooled HLM, HIM, or recombinant human UGTs. All data were analyzed by nonlinear regression analysis using the GraphPad Prism 6 (GraphPad Software Inc., CA, United States). […] Intrinsic clearance (CLint) was calculated by dividing Vmax by Km.

[1] = test system: human liver microsomes (HLM); assay: Ticagrelor glucuronidation kinetics in pooled HLM
Protocol: Ticagrelor glucuronidation was investigated in an in vitro incubation system by using HLM, HIM, and recombinant human UGTs. The incubation system consisted of enzyme sources (HLM, HIM, or human recombinant UGTs), various concentrations of ticagrelor (dissolved in 50% methanol, 1% v/v, 1, 2, 5, 10, 20, 50, 100, 200, 500 μM of final concentration), alamethicin (50 μg/mg protein), 5 mM MgCl2, 100 mM tris-HCL buffer (pH 7.4), and 5 mM UDPGA in a total volume of 100 μl. Alamethicin is a pore-forming polypeptide used to activate UGTs in HLM and HIM ([Fisher et al., 2000]). Preliminary studies were conducted to determine the optimal protein concentrations and incubation times. Linear conditions of ticagrelor-O-Glu formation from ticagrelor, i.e., HLM, 0.2 mg of protein/ml and 60 min, HIM, 0.2 mg of protein/ml and 60 min, and recombinant human UGTs, 0.2 mg of protein/ml and 60 min were selected. The incubation mixture without UDPGA was placed on ice for 15 min to activate UGT by alamethicin. After pre-incubation for 5 min at 37°C, the reactions were started by the addition of UDPGA. After another 60 min of incubation at 37°C, the reaction was terminated by adding 100 μl of acetonitrile containing internal standard (diazepam). The mixture vortexed for 2 min and then centrifuged at 14,000 rpm for 10 min at 4°C. The resulting supernatant was injected into a liquid chromatography tandem mass spectrometry (LC-MS/MS, Applied Biosystems/MDS Sciex, Foster City, CA) system for the detection of ticagrelor-O-Glu.
as §2, with “States). Michaelis-Menten kinetics (Eq. 1) or substrate inhibition kinetics (Eq. 2) ([Houston and Kenworthy, 2000]) were tested to determine the optimal model for describing the data.” for “States).”

UGT1A8 = target: T2, UGT1A8 (Homo sapiens, UniProt Q9HAW9); assay: Ticagrelor glucuronidation by recombinant human UGT1A8; conditions: recombinant human UGT1A8, pH 7.4
T2 construct: purchased BD Gentest; host or cells: baculovirus-infected insect cells
T2 sequence (Q9HAW9 26-530): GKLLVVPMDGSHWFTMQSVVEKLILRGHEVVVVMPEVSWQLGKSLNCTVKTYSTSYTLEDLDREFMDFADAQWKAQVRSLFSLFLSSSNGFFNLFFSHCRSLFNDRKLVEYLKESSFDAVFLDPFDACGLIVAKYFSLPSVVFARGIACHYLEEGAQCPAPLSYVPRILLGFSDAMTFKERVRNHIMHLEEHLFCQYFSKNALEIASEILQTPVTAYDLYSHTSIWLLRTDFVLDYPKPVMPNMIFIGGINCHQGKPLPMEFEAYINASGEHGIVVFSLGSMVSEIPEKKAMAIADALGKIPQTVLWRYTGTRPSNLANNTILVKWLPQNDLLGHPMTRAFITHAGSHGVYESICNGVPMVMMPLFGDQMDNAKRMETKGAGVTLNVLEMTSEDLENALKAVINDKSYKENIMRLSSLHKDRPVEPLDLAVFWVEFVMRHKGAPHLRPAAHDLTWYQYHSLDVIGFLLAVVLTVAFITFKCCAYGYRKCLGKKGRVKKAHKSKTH
Protocol: as §1, §2

UGT2B7 = target: T3, UGT2B7 (Homo sapiens, UniProt P16662); assay: Ticagrelor glucuronidation by recombinant human UGT2B7; set-up: purchased BD Gentest; host or cells: baculovirus-infected insect cells; conditions: recombinant human UGT2B7, pH 7.4
T3 sequence (P16662 24-529): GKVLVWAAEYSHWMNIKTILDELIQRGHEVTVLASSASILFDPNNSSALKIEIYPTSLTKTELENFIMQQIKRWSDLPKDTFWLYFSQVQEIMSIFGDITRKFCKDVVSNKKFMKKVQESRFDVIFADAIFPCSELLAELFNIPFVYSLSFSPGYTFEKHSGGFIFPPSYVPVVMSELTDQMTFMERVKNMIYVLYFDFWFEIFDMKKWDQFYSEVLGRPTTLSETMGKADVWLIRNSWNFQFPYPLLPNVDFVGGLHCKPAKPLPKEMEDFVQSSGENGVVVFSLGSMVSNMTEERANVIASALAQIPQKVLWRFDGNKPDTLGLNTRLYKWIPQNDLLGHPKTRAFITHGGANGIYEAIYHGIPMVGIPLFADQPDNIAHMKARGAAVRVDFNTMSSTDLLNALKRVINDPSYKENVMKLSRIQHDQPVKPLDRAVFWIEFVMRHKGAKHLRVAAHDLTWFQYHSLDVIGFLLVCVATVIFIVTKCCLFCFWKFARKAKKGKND
Protocol: as §1, §2

UGT1A9 = target: T4, UGT1A9 (Homo sapiens, UniProt O60656); assay: Ticagrelor glucuronidation by recombinant human UGT1A9; set-up: purchased BD Gentest; host or cells: baculovirus-infected insect cells; conditions: recombinant human UGT1A9, pH 7.4
T4 sequence (O60656 26-530): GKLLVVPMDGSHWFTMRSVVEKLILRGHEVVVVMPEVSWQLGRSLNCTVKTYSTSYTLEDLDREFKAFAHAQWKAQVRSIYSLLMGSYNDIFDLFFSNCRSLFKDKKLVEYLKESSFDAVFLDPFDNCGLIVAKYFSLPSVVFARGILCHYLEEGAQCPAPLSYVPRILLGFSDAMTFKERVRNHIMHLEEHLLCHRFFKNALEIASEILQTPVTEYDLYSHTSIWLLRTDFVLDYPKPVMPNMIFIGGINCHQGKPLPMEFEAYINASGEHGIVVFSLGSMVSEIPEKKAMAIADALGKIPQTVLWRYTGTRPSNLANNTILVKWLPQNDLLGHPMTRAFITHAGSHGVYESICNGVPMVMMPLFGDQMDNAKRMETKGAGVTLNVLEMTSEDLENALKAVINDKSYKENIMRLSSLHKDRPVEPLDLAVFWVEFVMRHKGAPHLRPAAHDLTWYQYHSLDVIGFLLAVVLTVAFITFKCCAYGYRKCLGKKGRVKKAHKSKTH
Protocol: as §1, §2

- microsomal CLint (UGT1A7): 0.07 µL/min/mg
- Km ([1]; pooled HLM 0.2 mg protein/ml, 60 min, substrate inhibition kinetics): 5.65 µM
- microsomal CLint (UGT1A8): 0.01 µL/min/mg
- microsomal CLint (UGT2B7): 0.02 µL/min/mg
- microsomal CLint (UGT1A9): 0.56 µL/min/mg
Structure (SMILES): CCCSc1nc(N[C@@H]2C[C@H]2c2ccc(F)c(F)c2)c2nnn([C@@H]3C[C@H](OCCO)[C@@H](O)[C@H]3O)c2n1 [Ticagrelor]
- Ksi ([1]; pooled HLM): 1,343 μM and 1,343.0 μM
- Vmax ([1]; pooled HLM): 8.03 pmol·min^−1·mg protein^−1
